Measurements published in ChEMBL document CHEMBL1123898, “Antitumor imidazotetrazines. 14. Synthesis and antitumor activity of 6- and 8-substituted imidazo[5,1-d]-1,2,3,5-tetrazinones and 8-substituted pyrazolo[5,1-d]-1,2,3,5-tetrazinones” (1987).

Columns and labels:
Type in all cases: functional
L1210 [1] = assay: Antitumor activity was assessed against L1210 tumors in B6D2F1 mouse by inoculation of 10e5 tumor cells through intravenous route and mean death of animals (treated/control) was reported at 40 mg/kg peroral dose; settings: route oral
L1210 [2] = assay: Antitumor activity was assessed against L1210 tumors in B6D2F1 mouse by inoculation of 10e5 tumor cells through intravenous route and number of Survivors to duration was reported at 40 mg/kg peroral dose; 1/7; settings: route oral
[3] = Antitumor activity was assessed against TLX5 tumors in CBA/CA mouse by inoculation of 2 x 10e5 tumor cells through subcutaneous route and mean death of animals (treated/control) was reported at 5 mg/kg ip dose
L1210 [4] = assay: Antitumor activity was assessed against L1210 tumors in B6D2F1 mouse by inoculation of 10e5 tumor cells through intravenous route and mean death of animals (treated/control) was reported at 20 mg/kg peroral dose; settings: route oral
[5] = Antitumor activity was assessed against TLX5 tumors in CBA/CA mouse by inoculation of 2 x 10e5 tumor cells through subcutaneous route and mean death of animals (treated/control) was reported at 20 mg/kg ip dose
[6] = Antitumor activity was assessed against TLX5 tumors in CBA/CA mouse by inoculation of 2 x 10e5 tumor cells through subcutaneous route and number of Survivors to duration was reported at 40 mg/kg ip dose; 4/5
[7] = Antitumor activity was assessed against TLX5 tumors in CBA/CA mouse by inoculation of 2 x 10e5 tumor cells through subcutaneous route and mean death of animals (treated/control) was reported at 10 mg/kg ip dose
L1210 [8] = assay: Antitumor activity was assessed against L1210 tumors in B6D2F1 mouse by inoculation of 10e5 tumor cells through intravenous route and mean death of animals (treated/control) was reported at 10 mg/kg peroral dose; settings: route oral
[9] = Antitumor activity was assessed against TLX5 tumors in CBA/CA mouse by inoculation of 2 x 10e5 tumor cells through subcutaneous route and mean death of animals (treated/control) was reported at 40 mg/kg ip dose
L1210 [10] = assay: Antitumor activity was assessed against L1210 tumors in B6D2F1 mouse by inoculation of 10e5 tumor cells through intravenous route and mean death of animals (treated/control) was reported at 5 mg/kg peroral dose; settings: route oral
L1210 [11] = assay: Antitumor activity was assessed against L1210 tumors in B6D2F1 mouse by inoculation of 10e5 tumor cells through intravenous route and number of Survivors to duration was reported at 40 mg/kg peroral dose; 5/7; settings: route oral
[12] = Antitumor activity was assessed against TLX5 tumors in CBA/CA mouse by inoculation of 2 x 10e5 tumor cells through subcutaneous route and mean death of animals (treated/control) was reported at 40 mg/kg dose
[13] = Antitumor activity was assessed against TLX5 tumors in CBA/CA mouse by inoculation of 2 x 10e5 tumor cells through subcutaneous route and mean death of animals (treated/control) was reported at 320 mg/kg dose
[14] = Antitumor activity was assessed against TLX5 tumors in CBA/CA mouse by inoculation of 2 x 10e5 tumor cells through subcutaneous route and mean death of animals (treated/control) was reported at 80 mg/kg dose
[15] = Antitumor activity was assessed against TLX5 tumors in CBA/CA mouse by inoculation of 2 x 10e5 tumor cells through subcutaneous route and mean death of animals (treated/control) was reported at 160 mg/kg dose
[16] = Antitumor activity was assessed against TLX5 tumors in CBA/CA mouse by inoculation of 2 x 10e5 tumor cells through subcutaneous route and mean death of animals (treated/control) was reported at 20 mg/kg dose
L1210 [17] = assay: Antitumor activity was assessed against L1210 tumors in B6D2F1 mouse by inoculation of 10e5 tumor cells through iv route and mean death of animals (treated/control) was reported at 10 mg/kg peroral dose; settings: route oral
[18] = Antitumor activity was assessed against TLX5 tumors in CBA/CA mouse by inoculation of 2 x 10e5 tumor cells through sc route and mean death of animals (treated/control) was reported at 40 mg/kg dose; settings: route subcutaneous
[19] = Antitumor activity was assessed against TLX5 tumors in CBA/CA mouse by inoculation of 2 x 10e5 tumor cells through sc route and mean death of animals (treated/control) was reported at 10 mg/kg dose; settings: route subcutaneous
L1210 [20] = assay: Antitumor activity was assessed against L1210 tumors in B6D2F1 mouse by inoculation of 10e5 tumor cells through iv route and number of Survivors to duration was reported at 10 mg/kg peroral dose; 1/7; settings: route oral
[21] = Antitumor activity was assessed against TLX5 tumors in CBA/CA mouse by inoculation of 2 x 10e5 tumor cells through sc route and mean death of animals (treated/control) was reported at 20 mg/kg dose; settings: route subcutaneous
[22] = Antitumor activity was assessed against TLX5 tumors in CBA/CA mouse by inoculation of 2 x 10e5 tumor cells through sc route and mean death of animals (treated/control) was reported at 5 mg/kg dose; settings: route subcutaneous
L1210 [23] = assay: Antitumor activity was assessed against L1210 tumors in B6D2F1 mouse by inoculation of 10e5 tumor cells through iv route and mean death of animals (treated/control) was reported at 20 mg/kg peroral dose; settings: route oral
L1210 [24] = assay: Antitumor activity was assessed against L1210 tumors in B6D2F1 mouse by inoculation of 10e5 tumor cells through iv route and mean death of animals (treated/control) was reported at 2.5 mg/kg peroral dose; settings: route oral
[25] = Antitumor activity was assessed against TLX5 tumors in CBA/CA mouse by inoculation of 2 x 10e5 tumor cells through sc route and number of Survivors to duration was reported at 20 mg/kg ip dose; 5/5; settings: route subcutaneous
L1210 [26] = assay: Antitumor activity was assessed against L1210 tumors in B6D2F1 mouse by inoculation of 10e5 tumor cells through iv route and mean death of animals (treated/control) was reported at 5 mg/kg peroral dose; settings: route oral
L1210 [27] = assay: Antitumor activity was assessed against L1210 tumors in B6D2F1 mouse by inoculation of 10e5 tumor cells through iv route and number of Survivors to duration was reported at 20 mg/kg peroral dose; 6/7; settings: route oral
L1210 [28] = assay: Antitumor activity was assessed against L1210 tumors in B6D2F1 mouse by inoculation of 10e5 tumor cells through intravenous route and number of Survivors to duration was reported at 20 mg/kg peroral dose; 6/7; settings: route oral
[29] = Antitumor activity was assessed against TLX5 tumors in CBA/CA mouse by inoculation of 2 x 10e5 tumor cells through subcutaneous route and number of Survivors to duration was reported at 20 mg/kg ip dose; 3/5
[30] = Antitumor activity was assessed against TLX5 tumors in CBA/CA mouse by inoculation of 2 x 10e5 tumor cells through subcutaneous route and number of Survivors to duration was reported at 40 mg/kg ip dose; 1/5
[31] = Antitumor activity was assessed against TLX5 tumors in CBA/CA mouse by inoculation of 2 x 10e5 tumor cells through sc route and mean death of animals (treated/control) was reported at 40 mg/kg ip dose; settings: route subcutaneous
L1210 [32] = assay: Antitumor activity was assessed against L1210 tumors in B6D2F1 mouse by inoculation of 10e5 tumor cells through iv route and mean death of animals (treated/control) was reported at 25 mg/kg po dose
L1210 [33] = assay: Antitumor activity was assessed against L1210 tumors in B6D2F1 mouse by inoculation of 10e5 tumor cells through iv route and mean death of animals (treated/control) was reported at 200 mg/kg po dose
[34] = Antitumor activity was assessed against TLX5 tumors in CBA/CA mouse by inoculation of 2 x 10e5 tumor cells through sc route and mean death of animals (treated/control) was reported at 80 mg/kg ip dose; settings: route subcutaneous
L1210 [35] = assay: Antitumor activity was assessed against L1210 tumors in B6D2F1 mouse by inoculation of 10e5 tumor cells through iv route and number of Survivors to duration was reported at 200 mg/kg po dose; 1/7
[36] = Antitumor activity was assessed against TLX5 tumors in CBA/CA mouse by inoculation of 2 x 10e5 tumor cells through sc route and mean death of animals (treated/control) was reported at 160 mg/kg ip dose; settings: route subcutaneous
L1210 [37] = assay: Antitumor activity was assessed against L1210 tumors in B6D2F1 mouse by inoculation of 10e5 tumor cells through iv route and mean death of animals (treated/control) was reported at 50 mg/kg po dose
L1210 [38] = assay: Antitumor activity was assessed against L1210 tumors in B6D2F1 mouse by inoculation of 10e5 tumor cells through iv route and mean death of animals (treated/control) was reported at 100 mg/kg po dose
L1210 [39] = assay: Antitumor activity was assessed against L1210 tumors in B6D2F1 mouse by inoculation of 10e5 tumor cells through iv route and number of Survivors to duration was reported at 100 mg/kg po dose; 5/7
[40] = Antitumor activity was assessed against TLX5 tumors in CBA/CA mouse by inoculation of 2 x 10e5 tumor cells through sc route and mean death of animals (treated/control) was reported at 20 mg/kg ip dose; settings: route subcutaneous
[41] = Antitumor activity was assessed against TLX5 tumors in CBA/CA mouse by inoculation of 2 x 10e5 tumor cells through sc route and mean death of animals (treated/control) was reported at 10 mg/kg ip dose; settings: route subcutaneous
L1210 [42] = assay: (§1) Antitumor activity was assessed against L1210 tumors in B6D2F1 mouse by inoculation of 10e5 tumor cells through intravenous route and mean death of animals (treated/control) was reported at 50 mg/kg peroral dose; settings: route oral
[43] = Antitumor activity was assessed against TLX5 tumors in CBA/CA mouse by inoculation of 2 x 10e5 tumor cells through sc route and number of Survivors to duration was reported at 20 mg/kg ip dose; 1/5; settings: route subcutaneous
L1210 [44] = assay: Antitumor activity was assessed against L1210 tumors in B6D2F1 mouse by inoculation of 10e5 tumor cells through iv route and number of Survivors to duration was reported at 40 mg/kg peroral dose; 2/7; settings: route oral
[45] = as §1; settings: route oral
[46] = Antitumor activity was assessed against L1210 tumors in B6D2F1 mouse by inoculation of 10e5 tumor cells through intravenous route and mean death of animals (treated/control) was reported at 200 mg/kg peroral dose; settings: route oral
[47] = Antitumor activity was assessed against L1210 tumors in B6D2F1 mouse by inoculation of 10e5 tumor cells through intravenous route and mean death of animals (treated/control) was reported at 100 mg/kg peroral dose; settings: route oral
L1210 [48] = assay: Antitumor activity was assessed against L1210 tumors in B6D2F1 mouse by inoculation of 10e5 tumor cells through intravenous route and mean death of animals (treated/control) was reported at 80 mg/kg peroral dose; settings: route oral
L1210 [49] = assay: Antitumor activity was assessed against L1210 tumors in B6D2F1 mouse by inoculation of 10e5 tumor cells through intravenous route and mean death of animals (treated/control) was reported at 160 mg/kg peroral dose; settings: route oral
[50] = Antitumor activity was assessed against TLX5 tumors in CBA/CA mouse by inoculation of 2 x 10e5 tumor cells through sc route and mean death of animals (treated/control) was reported at 320 mg/kg ip dose; settings: route subcutaneous
[51] = Antitumor activity was assessed against TLX5 tumors in CBA/CA mouse by inoculation of 2 x 10e5 tumor cells through sc route and number of Survivors to duration was reported at 160 mg/kg ip dose; 1/5; settings: route subcutaneous
L1210 [52] = assay: Antitumor activity was assessed against L1210 tumors in B6D2F1 mouse by inoculation of 10e5 tumor cells through iv route and number of Survivors to duration was reported at 200 mg/kg po dose; 10/10

NC(=O)c1ncn2c(=O)n(CCCl)nnc12 [MITOZOLOMIDE]
T/C (L1210 [1]): >330%
Survivors (L1210 [2]): 1
T/C [3]: 113%
T/C (L1210 [4]): 217%
T/C [5]: 167%
Survivors [6]: 4
T/C [7]: 163%
T/C (L1210 [8]): 178%
T/C [9]: >458%
T/C (L1210 [10]): 133%

CS(=O)(=O)c1cnn2c(=O)n(CCCl)nnc12
T/C (L1210 [1]): >447%
T/C (L1210 [4]): 307%
T/C (L1210 [8]): 155%
Survivors (L1210 [11]): 5

O=C(Nc1ccccc1)c1ncn2c(=O)n(CCCl)nnc12
T/C [12]: 103%
T/C [13]: 98%
T/C [14]: 100%
T/C [15]: 98%
T/C [16]: 98%

NS(=O)(=O)c1ncn2c(=O)n(CCCl)nnc12
T/C (L1210 [17]): >376%
T/C [18]: 119%
T/C [19]: 160%
Survivors (L1210 [20]): 1
T/C [21]: >476%
T/C [22]: 121%
T/C (L1210 [23]): >605%
T/C (L1210 [24]): 136%
Survivors [25]: 5
T/C (L1210 [26]): 207%
Survivors (L1210 [27]): 6

CNS(=O)(=O)c1ncn2c(=O)n(CCCl)nnc12
T/C (L1210 [1]): 25%
T/C [12]: >203%
Survivors (L1210 [28]): 6
T/C (L1210 [4]): >666%
Survivors [29]: 3
Survivors [30]: 1
T/C [14]: 68%
T/C (L1210 [8]): 283%
T/C [16]: >375%

NC(=O)c1cnn2c(=O)n(CCCl)nnc12
T/C [31]: 116%
T/C (L1210 [32]): 120%
T/C (L1210 [33]): 363%
T/C [34]: 143%
Survivors (L1210 [35]): 1
T/C [36]: 221%
T/C (L1210 [37]): 186%
T/C (L1210 [38]): >530%
Survivors (L1210 [39]): 5
T/C [40]: 123%
T/C [41]: 98%

CS(=O)(=O)c1ncn2c(=O)n(CCCl)nnc12
T/C (L1210 [1]): >310%
T/C [12]: 66%
T/C (L1210 [42]): 217%
Survivors [43]: 1
T/C (L1210 [4]): 257%
T/C [14]: 66%
Survivors (L1210 [44]): 2
T/C (L1210 [8]): 217%
T/C [16]: >214%

NC(=O)c1nc(CCc2ccccc2)n2c(=O)n(CCCl)nnc12
T/C [45]: 100%
T/C [46]: 100%
T/C [47]: 100%

O=C(NCc1ccccc1)c1ncn2c(=O)n(CCCl)nnc12
T/C (L1210 [1]): 100%
T/C (L1210 [48]): 130%
T/C (L1210 [49]): 183%

CN(C)C(=O)c1cnn2c(=O)n(CCCl)nnc12
T/C [31]: 109%
T/C [50]: 48%
T/C (L1210 [33]): >600%
T/C [34]: 131%
Survivors [51]: 1
T/C [36]: >248%
T/C (L1210 [37]): 144%
T/C (L1210 [38]): 250%
Survivors (L1210 [52]): 10
